{"source": "patent US9879036B2", "about": "“Mitochondrial aldehyde dehydrogenase-2 binding compounds and methods of use thereof” (Aviv Therapeutics, Inc., priority 2014, dated 2018)", "key": {"[1]": {"tested_on": "FANCA deficiency lymphocyte cell line (FANCA B-lymphocyte, GM13022)", "assay": "Proliferation of FANCA deficient lymphocytes under 4 HNE challenge (alamarBlue)", "assay_type": "cell-based", "procedure": "FANCA deficiency lymphocyte cell line (Fanconi Anemia, Complementation Group A, FANCA B-lymphocyte, GM13022) was purchased from Coriell Cell Repositories (403 Haddon Ave, Camden, N.J. 08103).\nStandard cell culture conditions were used in this experiment. The culture medium (CM) consisted of culture medium RPMI1640, 15% heat-inactivated FBS, 2 mM L-glutamine, 1% Pen/Strep. Cells were suspended in 10-20 ml CM in T25 tissue culture flask in an upright position and incubated in a 37° C., 5% CO2 incubator. Cells were counted daily and diluted with fresh CM to 3×10^5 cells/ml. Cells thawed and maintained in culture for 3-12 days were used in these studies.\nCell densities of FANCA lymphocytes were determined and cells were diluted in RPMI1640 medium containing 15% FBS, 2 mM L-glutamine, 1% Pen/Strep to desired cell density. 4000 cells in 50-75 μl were plated onto each well in total 48 wells in columns 3-10 and rows B-G. This plating arrangement provided 6-replicates per column for each experimental condition. Plate was then centrifuged at 500 rpm for 2 min to ensure better distribution of cells across the well. For background medium controls, equal volume (50-75 μl) of dilution medium were added to wells B2, C2, D2.\nFor minimizing cells/medium drying in sample wells, 150 μl of 1×DPBS was added to each well of the 45 wells surrounding the sample and control wells. Plate was then incubated in a 37° C. 5% CO2 incubator for at least 4 hours before addition of new reagent.\nCompounds were diluted from 20 mM stocks in DMSO with RPMI1640 medium containing 15% FBS. RPMI1640 medium containing 15% FBS and corresponding volume of DMSO was used as controls.\n4 HNE (64 mM in 100% ethanol) was diluted to desired concentrations with RPMI1640 base medium.\nAlamarBlue was added to each well to final 9.1 or 10% of the total volume in each well. Plate was further incubated in the 37° C. 5% CO2 incubator. The alamarBlue assay is designed to measure quantitatively the proliferation of human and animal cell lines in culture versus incubation time period.\nPlate was removed from the CO2 incubator at a pre-designated time and placed in the microplate reader. The fluorescence level in each well was monitored at Ex 554 nm and Em 590 nm. Afterwards the numeric numbers/units were used for data analyses.\nFluorescence units in all wells were acquired by the microplate reader at each time point. Data were then exported to scientist's computer equipped with SoftMax ProS software. The average of Background units (Blk, 3×) and the average of each sample set (6 replicates) were determined. For data collected at each time point (cell culture incubation period), the average of Blk units were subtracted from the average of each set of the Sample units. These “net fluorescence unit” data were then presented in a plot consisted of different culture incubation time periods (the x-axis) versus the corresponding net fluorescence units (y-axis).\nThe “net fluorescence units” of each sample set were also compared to those of the “control” at each time point. “Control fluorescence units” were considered to be 100% at all the time points. Each set of “net fluorescence units” were divided by the “Control fluorescent units” and multiplied by 100 to obtain corresponding percentages. These “relative percentage” data were then presented in a plot consisted of time points (the x-axis) versus the corresponding relative percentages to control of 100 (y-axis).\nThe inhibitory effect of 4 HNE on the proliferation of FANCA lymphocytes was examined. 4000 cells in 75 μl of RPMI1640 medium containing 15% FBS were plated onto each sample well in a 96-well poly D-lysine coated black/clear cell culture plate and the plate was incubated in a 37° C. 5% CO2 incubator for 7 hours.\nStock of 4 HNE at 64 mM was diluted with RPMI1640 medium to 10 μM, 20 μM, 30 μM, 40 μM, 60 μM, 80 μM, and 120 μM. […]"}, "[2]": {"tested_on": "carrageenan inflammatory pain model in male C57BL/6 mice", "assay": "Carrageenan inflammatory pain model, Von Frey paw withdrawal threshold", "assay_type": "in vivo", "details": "for contralateral paw withdrawal threshold / ipsilateral paw withdrawal threshold compared to vehicle: 180 minutes after carrageenan; for carrageenan-induced mechanical hyperalgesia: ipsilateral paw", "procedure": "Mice are acclimated to the colony room and maintained on a 12 hour/12 hour light/dark cycle. To induce plantar sensitivity to tactile stimuli, a single injection of carrageenan is administered to the plantar hindpaw of the mice and withdrawal from a mechanical stimulus is measured by applying Von Frey filaments of ascending bending force to the plantar surface of the hind paws.\nA compound of formula (I) is dissolved and administered subcutaneous (sc) or orally (po) prior to carrageenan administration and after carrageenan injections. Data is analyzed by analysis of variance (ANOVA) followed by post-hoc comparisons with Fisher Tests when appropriate.\nThe analgesic effects of AC151 and Alda-1 were evaluated using the carrageenan inflammatory pain model in male C57BL/6 mice. The mice were administered AC151, Alda-1 and vehicle (saline) as a control.\nMale C57BL/6J mice from Jackson Laboratories (Bar Harbor, Me.) were used in this study. Mice were received at 6-7 weeks of age. Upon receipt, mice were assigned unique identification numbers (tail marked) and were group housed in OPTImice cages. All animals were acclimated to the colony room for at least 1 week prior to testing. During the period of acclimation, animals were examined on a regular basis, handled, and weighed to assure adequate health and suitability. Animals were maintained on a 12 hour/12 hour light/dark cycle. The room temperature was maintained between 20° C. and 23° C. with a relative humidity maintained between 30% and 70%. Chow and water were provided ad libitum for the duration of the study. All testing was performed during the animal's light cycle phase.\nTo induce plantar sensitivity to tactile stimuli, a single injection of carrageenan was administered to the plantar hindpaw of the mice and three hours later withdrawal from a mechanical stimulus is measured by applying Von Frey filaments of ascending bending force (0.02 to 6 grams) to the plantar surface of the hind paws (ipsilateral and contralateral to injection). A positive response was defined as withdrawal from the Von Frey filament. Confirmation of threshold is tested by examining the filament above and below the withdrawal response. A significant decrease in withdrawal threshold is interpreted as mechanical hyperalgesia. Prior to drug or carrageenan treatment, baseline Von Frey measures were taken and used to balance animals across treatment groups.\nAlda-1 (1, 2, and 5 mg/kg) was dissolved in 50% DMSO/50% PEG and administered subcutaneous (sc), 15 min prior to carrageenan administration and twice again 30 and 150 minutes after carrageenan injections at a dose volume of 5 ml/kg. AC151 (40 and 80 mg/kg) was dissolved in saline and administered orally (po), 30 min after carrageenan administration. For one group, AC151 (80 mg/kg) was administered 15 min prior to carrageenan injections. The dose volume for this compound was 10 ml/kg.\nThe initial injections of AC151 (80 mg/kg) and Alda-1 were made 15 min prior to carrageenan injections. Then, a single 3.5 μl injection of 3% carrageenan was administered to the right plantar hindpaw. Alda-1 was then administered twice, once 30 minutes after carrageenan and again 150 minutes post-carrageenan. In separate treatment groups AC151 (40 mg/kg and 80 mg/kg) as well as saline vehicle were administered 30 minutes after carrageenan injection. Von Frey measures were taken 180 minutes after carrageenan injection.\nData were analyzed by analysis of variance (ANOVA) followed by post-hoc comparisons with Fisher Tests when appropriate. An effect was considered significant if p<0.05. […]."}, "ALDH2": {"biological_target": "T1, ALDH2 (Homo sapiens, UniProt P05091)", "T1 construct": "His-tag (N); made in house; host or cells: E. coli BL21", "T1 sequence (P05091 18-517)": "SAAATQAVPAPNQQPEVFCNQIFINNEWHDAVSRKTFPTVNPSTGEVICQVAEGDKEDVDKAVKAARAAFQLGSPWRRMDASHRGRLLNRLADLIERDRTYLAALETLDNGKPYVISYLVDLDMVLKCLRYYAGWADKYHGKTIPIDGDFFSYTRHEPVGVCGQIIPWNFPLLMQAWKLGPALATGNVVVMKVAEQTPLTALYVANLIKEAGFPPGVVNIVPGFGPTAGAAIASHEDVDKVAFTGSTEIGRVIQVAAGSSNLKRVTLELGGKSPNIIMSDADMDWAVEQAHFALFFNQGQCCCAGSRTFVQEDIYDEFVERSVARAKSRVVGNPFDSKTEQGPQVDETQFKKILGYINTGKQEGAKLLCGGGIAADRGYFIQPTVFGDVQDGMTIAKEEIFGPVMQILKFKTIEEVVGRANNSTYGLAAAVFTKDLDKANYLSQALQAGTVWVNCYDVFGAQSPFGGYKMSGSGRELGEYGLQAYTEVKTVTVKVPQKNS", "assay": "ALDH2 activity with 20 μM of the compound (Table 3)", "assay_type": "biochemical", "details": "20 μM compound", "summary_of_the_method": "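Compound was tested at 20 μM. ALDH2 oxidation of acetaldehyde with NAD+ cofactor was followed spectrophotometrically as NADH accumulation at 340 nm. Activity is expressed relative to the enzyme's baseline activity, taken as 100%.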"}}, "note": "Entries after “also recorded” stand apart in the source; their conditions may differ.", "data": [{"molecule": "CCCCCC(O)/C=C/C=O", "note": "(stereo not drawn) [4 HNE, trans-4-Hydroxynonenal, reference compound]", "values": [{"measurement": "relative cell proliferation rate (control = 100%)", "setting": "[1]; 3.5 μM 4 HNE only, 25 hours to 48 hours after 4 HNE treatment", "value": 83, "unit": "%"}, {"measurement": "level of FANCA cell proliferation", "setting": "[1]; 4 HNE 2.5 to 30 μM, no ALDH2 activator", "value": "reduction of the level of cell proliferation in a concentration-dependent manner"}]}, {"molecule": "O=C(NCc1ccc2c(c1)OCO2)c1c(Cl)cccc1Cl", "note": "[Alda-1, N-(1,3-Benzodioxol-5-ylmethyl)-2,6-dichlorobenzamide, reference compound]", "values": [{"measurement": "contralateral paw withdrawal threshold", "setting": "[2]", "value": "No treatment effects"}, {"measurement": "ipsilateral paw withdrawal threshold compared to vehicle", "setting": "[2]; Alda-1 5 mg/kg sc, three doses", "value": "significantly increased paw withdrawal threshold"}, {"measurement": "carrageenan-induced mechanical hyperalgesia", "setting": "[2]", "value": "attenuated carrageenan-induced mechanical hyperalgesia"}]}, {"molecule": "COc1ccc(CNC(=O)c2cc(-c3n[nH]cc3CO)ccc2OCC2CC2)cc1F", "note": "[AC32]", "values": [{"measurement": "activity at 20 µM", "setting": "ALDH2", "value": "> 250", "unit": "%"}, {"measurement": "relative cell proliferation versus control without AC compounds", "setting": "[1]; 3.5 μM 4 HNE, 5 μM and 10 μM AC6, 10 μM AC32, 25 hours to 48 hours after 4 HNE treatment", "value": "higher levels of cell growth than “control”; also recorded: more efficient growth than control"}, {"measurement": "FANCA-deficiency lymphocyte cell growth versus 4 HNE only or 2 μM ALDH2 activators", "setting": "[1]; 10 μM compound, pretreatment 2 hours before 6 μM 4 HNE challenge", "value": "higher levels of cell growth"}, {"measurement": "FANCA-deficiency lymphocyte cell growth versus 4 HNE only", "setting": "[1]; pretreatment 2 hours before 3.5 μM 4 HNE challenge, 2 to 10 μM compound", "value": "higher levels of cell growth"}]}, {"molecule": "COc1ccc(CNC(=O)c2cc(-c3ncccc3COC(=O)[C@H](N)C(C)C)ccc2OCC(C)C)cc1F", "note": "[AC151]", "values": [{"measurement": "contralateral paw withdrawal threshold", "setting": "[2]", "value": "No treatment effects"}, {"measurement": "ipsilateral paw withdrawal threshold compared to vehicle", "setting": "[2]; AC151 40 and 80 mg/kg po (all groups)", "value": "significantly increased paw withdrawal threshold"}, {"measurement": "carrageenan-induced mechanical hyperalgesia", "setting": "[2]", "value": "attenuated carrageenan-induced mechanical hyperalgesia"}]}]}
